PubChem BioAssay AID2060610 (Molecular Pharmacology Branch, DTP, NCI, 2025)
Several values for one entry are separate records, joined by “and”; a condition that tells them apart may be missing. Equal entries are not always repeated.

Tested on: 616215-338-R-J1-PDC complex spheroids, viability % test/control
Assay: Anticancer human tumor 616215-338-R-J1-PDC patient-derived colon adenocarcinoma cell line growth inhibition [CLK]
Conditions: for viability, T/C: stronger effect = lower value
Method in brief: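 Patient-derived tumor cells grown as complex spheroids with HUVEC endothelial cells and mesenchymal stem cells, treated with drug combinations. Concentrations descend in half-log steps from near clinical Cmax, or from 10 microM if Cmax unknown.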

[1] = curve of first compound, second compound 0.0316 µM
[2] = curve of first compound, second compound 0.1 µM
[3] = curve of first compound, second compound 0.316 µM
[4] = curve of first compound, second compound 1 µM
[5] = curve of first compound, second compound 3.16 µM
[6] = curve of first compound, second compound 10 µM
[7] = second compound 0.0316 µM, first compound 0.0316 µM
[8] = second compound 0.0316 µM, first compound 0.1 µM
[9] = second compound 0.0316 µM, first compound 0.316 µM
[10] = second compound 0.0316 µM, first compound 1 µM
[11] = second compound 0.0316 µM, first compound 3.16 µM
[12] = second compound 0.0316 µM, first compound 10 µM
[13] = second compound 0.1 µM, first compound 0.0316 µM
[14] = second compound 0.1 µM, first compound 0.1 µM
[15] = second compound 0.1 µM, first compound 0.316 µM
[16] = second compound 0.1 µM, first compound 1 µM
[17] = second compound 0.1 µM, first compound 3.16 µM
[18] = second compound 0.1 µM, first compound 10 µM
[19] = second compound 0.316 µM, first compound 0.0316 µM
[20] = second compound 0.316 µM, first compound 0.1 µM
[21] = second compound 0.316 µM, first compound 0.316 µM
[22] = second compound 0.316 µM, first compound 1 µM
[23] = second compound 0.316 µM, first compound 3.16 µM
[24] = second compound 0.316 µM, first compound 10 µM
[25] = second compound 1 µM, first compound 0.0316 µM
[26] = second compound 1 µM, first compound 0.1 µM
[27] = second compound 1 µM, first compound 0.316 µM
[28] = second compound 1 µM, first compound 1 µM
[29] = second compound 1 µM, first compound 3.16 µM
[30] = second compound 1 µM, first compound 10 µM
[31] = second compound 3.16 µM, first compound 0.0316 µM
[32] = second compound 3.16 µM, first compound 0.1 µM
[33] = second compound 3.16 µM, first compound 0.316 µM
[34] = second compound 3.16 µM, first compound 1 µM
[35] = second compound 3.16 µM, first compound 3.16 µM
[36] = second compound 3.16 µM, first compound 10 µM
[37] = second compound 10 µM, first compound 0.0316 µM
[38] = second compound 10 µM, first compound 0.1 µM
[39] = second compound 10 µM, first compound 0.316 µM
[40] = second compound 10 µM, first compound 1 µM
[41] = second compound 10 µM, first compound 3.16 µM
[42] = second compound 10 µM, first compound 10 µM
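Also: spheroids exposed to agents for 7 days.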
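For viability, T/C in this document: 100% = DMSO vehicle wells.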

For `CCCS(=O)(=O)Nc1ccc(F)c(C(=O)c2c[nH]c3ncc(-c4ccc(Cl)cc4)cc23)c1F` + CN1CCN(c2cc(C(=O)Nc3cc4cc(-c5cnn(C)c5)ccc4cn3)ccn2)CC1, the IC50 [1] was 1.51 µM, the IC50 [2] was 1.69 µM and the IC50 [3] was < 0.0316 µM. For the same compound, the IC50 [4] was < 0.0316 µM, the IC50 [5] was < 0.0316 µM and the IC50 [6] was < 0.0316 µM. The viability, T/C [7] was 21.5%, the viability, T/C [8] was 34.8% and the viability, T/C [9] was 99.9%. For the same compound, the viability, T/C [10] was 98.2%, the viability, T/C [11] was 25.5% and the viability, T/C [12] was 0.01%. For the same compound, the viability, T/C [13] was 24.7%, the viability, T/C [14] was 36.4% and the viability, T/C [15] was 105%. It also gave a viability, T/C [16] of 105%, a viability, T/C [17] of 28.9% and a viability, T/C [18] of 0.01%. The viability, T/C [19] was 10.4%, the viability, T/C [20] was 12.8% and the viability, T/C [21] was 38.1%. For the same compound, the viability, T/C [22] was 29.9%, the viability, T/C [23] was 21% and the viability, T/C [24] was 0%. It also gave a viability, T/C [25] of 0.01%, a viability, T/C [26] of 0.08% and a viability, T/C [27] of 0.17%. It also gave a viability, T/C [28] of 1.99%, a viability, T/C [29] of 0.6% and a viability, T/C [30] of 0.01%. For the same compound, the viability, T/C [31] was 0.01%, the viability, T/C [32] was 0.06% and the viability, T/C [33] was 0.14%. For the same compound, the viability, T/C [34] was 0.13%, the viability, T/C [35] was 0.08% and the viability, T/C [36] was 0%. The viability, T/C [37] was 0.03%, the viability, T/C [38] was 0.07% and the viability, T/C [39] was 0.17%. For the same compound, the viability, T/C [40] was 0.19%, the viability, T/C [41] was 0.25% and the viability, T/C [42] was 0%.
`CC(C)CC(NC(=O)C(Cc1ccccc1)NC(=O)c1cnccn1)B(O)O` (configuration not stated) was tested, and the viability, T/C (compound 0.000949 µM) was 109% and 107%, the viability, T/C (compound 0.003 µM) was 109% and 97.9% and the viability, T/C (compound 0.00949 µM) was 0.2% and 0.21%. The viability, T/C (compound 0.03 µM) was 0.18% and 0.25%, the viability, T/C (compound 0.0949 µM) was 0.12% and 0.23% and the viability, T/C (compound 0.3 µM) was 0.85% and 0.21%. For the same compound, the IC50 (curve of compound) was 0.00561 µM and 0.00528 µM.
`CCN1CCN(Cc2ccc(Nc3ncc(F)c(-c4cc(F)c5nc(C)n(C(C)C)c5c4)n3)nc2)CC1` + CN1CCN(c2cc(C(=O)Nc3cc4cc(-c5cnn(C)c5)ccc4cn3)ccn2)CC1 was tested, and the IC50 [1] was 0.951 µM, the IC50 [2] was 0.885 µM and the IC50 [3] was < 0.00316 µM. For the same compound, the IC50 [4] was < 0.00316 µM, the IC50 [5] was < 0.00316 µM and the IC50 [6] was < 0.00316 µM. The viability, T/C (second compound 0.0316 µM, first compound 0.00316 µM) was 111%, the viability, T/C (second compound 0.0316 µM, first compound 0.01 µM) was 105% and the viability, T/C [7] was 112%. It also gave a viability, T/C [8] of 149%, a viability, T/C [9] of 175% and a viability, T/C [10] of 46.2%. For the same compound, the viability, T/C (second compound 0.1 µM, first compound 0.00316 µM) was 114%, the viability, T/C (second compound 0.1 µM, first compound 0.01 µM) was 131% and the viability, T/C [13] was 116%. The viability, T/C [14] was 154%, the viability, T/C [15] was 120% and the viability, T/C [16] was 41.6%. For the same compound, the viability, T/C (second compound 0.316 µM, first compound 0.00316 µM) was 32.6%, the viability, T/C (second compound 0.316 µM, first compound 0.01 µM) was 32.6% and the viability, T/C [19] was 37.6%. It also gave a viability, T/C [20] of 48.6%, a viability, T/C [21] of 42.6% and a viability, T/C [22] of 12.8%. It also gave a viability, T/C (second compound 1 µM, first compound 0.00316 µM) of 0.15%, a viability, T/C (second compound 1 µM, first compound 0.01 µM) of 0.73% and a viability, T/C [25] of 1.7%. The viability, T/C [26] was 0.2%, the viability, T/C [27] was 2.07% and the viability, T/C [28] was 1.73%. For the same compound, the viability, T/C (second compound 3.16 µM, first compound 0.00316 µM) was 0.15%, the viability, T/C (second compound 3.16 µM, first compound 0.01 µM) was 0.16% and the viability, T/C [31] was 0.15%. It also gave a viability, T/C [32] of 0.13%, a viability, T/C [33] of 0.76% and a viability, T/C [34] of 0.18%. For the same compound, the viability, T/C (second compound 10 µM, first compound 0.00316 µM) was 0.2%, the viability, T/C (second compound 10 µM, first compound 0.01 µM) was 0.19% and the viability, T/C [37] was 2.8%. For the same compound, the viability, T/C [38] was 0.2%, the viability, T/C [39] was 3.09% and the viability, T/C [40] was 0.2%.
In the case of `CC(Nc1ccc2c(c1)OCCn1cc(N3C(=O)OCC3C(F)F)nc1-2)C(N)=O` (configuration not stated) + CNC(=O)c1ccc(Nc2nc(OC3CCCC3)c3c(-c4ccc5nc(C)oc5c4)c[nH]c3n2)c(OC)c1, the IC50 [1] is reported as > 10 µM, the IC50 [2] is reported as 3.81 µM and the IC50 [3] is reported as < 0.0316 µM. For the same compound, the IC50 [4] was < 0.0316 µM, the IC50 [5] was < 0.0316 µM and the IC50 [6] was < 0.0316 µM. For the same compound, the viability, T/C [7] was 95.8%, the viability, T/C [8] was 106% and the viability, T/C [9] was 100%. For the same compound, the viability, T/C [10] was 104%, the viability, T/C [11] was 104% and the viability, T/C [12] was 90.3%. For the same compound, the viability, T/C [13] was 52.5%, the viability, T/C [14] was 65.9% and the viability, T/C [15] was 51.7%. The viability, T/C [16] was 56.2%, the viability, T/C [17] was 51.5% and the viability, T/C [18] was 42.1%. It also gave a viability, T/C [19] of 38.8%, a viability, T/C [20] of 34.2% and a viability, T/C [21] of 37.6%. It also gave a viability, T/C [22] of 25.4%, a viability, T/C [23] of 26.1% and a viability, T/C [24] of 21.9%. For the same compound, the viability, T/C [25] was 33%, the viability, T/C [26] was 32.5% and the viability, T/C [27] was 26.4%. The viability, T/C [28] was 23.3%, the viability, T/C [29] was 16.4% and the viability, T/C [30] was 14.8%. The viability, T/C [31] was 35.2%, the viability, T/C [32] was 25.9% and the viability, T/C [33] was 21.7%. It also gave a viability, T/C [34] of 17.4%, a viability, T/C [35] of 17% and a viability, T/C [36] of 12.4%. It also gave a viability, T/C [37] of 28%, a viability, T/C [38] of 28.8% and a viability, T/C [39] of 21.9%. It also gave a viability, T/C [40] of 17.7%, a viability, T/C [41] of 17% and a viability, T/C [42] of 12.8%.
In the case of `Cn1ncnc1[C@H]1c2n[nH]c(=O)c3cc(F)cc(c23)N[C@@H]1c1ccc(F)cc1`, the viability, T/C (compound 0.000316 µM) is reported as 92% and 98.4%, the viability, T/C (compound 0.001 µM) is reported as 105% and 97.6% and the viability, T/C (compound 0.00316 µM) is reported as 102% and 94.1%. For the same compound, the viability, T/C (compound 0.01 µM) was 95% and 95.3%, the viability, T/C (compound 0.0316 µM) was 116% and 114% and the viability, T/C (compound 0.1 µM) was 106% and 116%. The IC50 (curve of compound) was > 0.1 µM.
With `C#Cc1c(F)ccc2cc(O)cc(-c3ncc4c(N5CC6CCC(C5)N6)nc(OCC56CCCN5CC(F)C6)nc4c3F)c12` (configuration not stated) + CNC(=O)c1ccc(Nc2nc(OC3CCCC3)c3c(-c4ccc5nc(C)oc5c4)c[nH]c3n2)c(OC)c1 the IC50 [1] was > 10 µM, the IC50 [2] was 0.232 µM and the IC50 [3] was < 0.0316 µM. The IC50 [4] was < 0.0316 µM, the IC50 [5] was < 0.0316 µM and the IC50 [6] was < 0.0316 µM. For the same compound, the viability, T/C [7] was 88.8%, the viability, T/C [8] was 90.4% and the viability, T/C [9] was 94.1%. It also gave a viability, T/C [10] of 91.1%, a viability, T/C [11] of 112% and a viability, T/C [12] of 110%. The viability, T/C [13] was 59.7%, the viability, T/C [14] was 56.2% and the viability, T/C [15] was 45.5%. It also gave a viability, T/C [16] of 43%, a viability, T/C [17] of 32.3% and a viability, T/C [18] of 24.4%. It also gave a viability, T/C [19] of 47.2%, a viability, T/C [20] of 43.8% and a viability, T/C [21] of 43.2%. For the same compound, the viability, T/C [22] was 42.3%, the viability, T/C [23] was 33% and the viability, T/C [24] was 18.6%. It also gave a viability, T/C [25] of 44.1%, a viability, T/C [26] of 44.2% and a viability, T/C [27] of 38.8%. The viability, T/C [28] was 30.7%, the viability, T/C [29] was 30.4% and the viability, T/C [30] was 17.8%. It also gave a viability, T/C [31] of 38.7%, a viability, T/C [32] of 41.3% and a viability, T/C [33] of 37.3%. For the same compound, the viability, T/C [34] was 33.1%, the viability, T/C [35] was 24.2% and the viability, T/C [36] was 18.2%. The viability, T/C [37] was 48.6%, the viability, T/C [38] was 42.6% and the viability, T/C [39] was 33.2%. It also gave a viability, T/C [40] of 34.7%, a viability, T/C [41] of 24.8% and a viability, T/C [42] of 18.9%.
